{"source": "patent US20030119719A1", "about": "“Use of endothelin conjugates in therapy, new endothelin conjugates, agents that contain the latter, and process for their production” (priority 1996, published 2003)", "key": {"arteriosclerotic plaque": {"test_system": "arteriosclerotic plaque", "assay": "In vivo and in vitro concentration in WHHL rabbits (gamma camera imaging, autoradiography of the aorta)", "conditions": "2 mCi (1 ml) via an ear vein", "procedure": "In Vivo and In Vitro Concentration of the ^99mTc-Complex of […] in WHHL Rabbits 2 mCi (1 ml) of the […]Tc-complex that is produced according to 5a) is administered to an anesthetized WHHL rabbit (Rompun/Ketavet 1:2) via an ear vein. WHHL rabbits have a high LDL level in the blood because of a deficient or defective LDL receptor and therefore create spontaneously arteriosclerotic vascular alterations. During the test period of 5 hours after the administration, static images of various exposure times and of various positions were produced with a gamma camera ([…]). 5 hours after the administration, the rabbit was sacrificed, and both an autoradiography of the aorta and a Sudan III coloring were carried out."}, "common carotid artery": {"test_system": "common carotid artery", "assay": "Local application via administration catheter in the denuded common carotid artery, dynamic scintigraphy and autoradiography", "conditions": "for course of the locally administered activity at the administration site after blood flow is restored: examination period of 1 hour, dynamic scintigrams, right common carotid artery", "text": "b) Local Application of the Tc-99m Complex of NH2-Asp-Gly-Gly-Cys-Gly-Cys-Phe-(D-Trp)-Leu-Asp-Ile-Ile-Trp-OH as well as Tc-99m-pertechnetate in the Common Carotid Artery of White New Zealand Rabbits\nIn anesthetized white New Zealand rabbits (3.5 kg), the right common carotid artery was opened up. A 2 F balloon catheter (from the Baxter Company) was inserted cranially through a cut, and a vascular area approximately 5 cm long was denuded twice with 0.9% saline after the catheter was inflated. Then, an administration catheter (coronary perfusion/infusion catheter, dispatch 3.0, Baxter Company) was fed to the above-denuded area. […] Then, the catheter was removed, and the blood flow after closure of the common carotid artery dextra was restored using a suture. Dynamic scintigrams were prepared over a period of 1 hour with the aid of a commercial gamma camera. Then, the animals were sacrificed, both carotids were removed, and an autoradiography was prepared."}}, "data": [{"compound": "^99mTc Complex of Asp-Gly-Gly-Cys-Gly-Cys-Phe-(D-Trp)-Leu-Asp-Ile-Ile-Trp", "values": [{"measurement": "time at which arteriosclerotic plaque in the area of the aortic arch could be visualized in vivo", "setting": "arteriosclerotic plaque", "value": 10, "unit": "minutes p.i."}]}, {"compound": "[O]=[99Tc](=[O])(=[O])[O-]", "note": "[Tc-99m pertechnetate]", "values": [{"measurement": "site of accumulation after being flushed from the vessel wall", "setting": "common carotid artery; anterior summation scintigram 0-1 hour after local administration (FIG. 1)", "value": "accumulates in the salivary glands as well as the thyroid"}, {"measurement": "course of the locally administered activity at the administration site after blood flow is restored", "setting": "common carotid artery", "value": "flushed from the vessel directly after the blood flow was regenerated"}, {"measurement": "course of the locally administered activity at the administration site after blood flow is restored", "setting": "common carotid artery; listed as Tc-99m-pertechnetate", "value": "flushed from the vessel wall immediately after the blood flow is restored"}]}]}
